Test results taken from patent US7498352B2, “TGF-β superfamily production/secretion promoter” (Takeda Pharmaceutical Company Limited, priority 2001, dated 2009).

Assays:
GDF-15 = GDF-15 expression in dorsal root ganglion of STZ diabetic neuropathy rats, real time quantitative RT-PCR; assay type: in vivo, rat; conditions: STZ (70 mg/kg) male SD rats, 10 mg/kg body weight/day orally for 4 months
Experimental: Streptozotocin (STZ) was administered to 6-week-old male SD rats (n=5-8) at 70 mg/kg to prepare diabetic neuropathy models. Starting from 4 months of the STZ administration, compound (5) was orally administered to the rats for 4 months at the dose of 10 mg/kg body weight/day. Then, dorsal root ganglion of the rats was removed, treated with ISOGEN solution (NIPPON GENE CO., LTD.) and the total RNA was extracted.
Using the obtained total RNA, a primer depicted in 5′-ACTGCATGCCAACCAGAGC-3′ (SEQ ID:1) and a primer depicted in 5′-[…]-3′ (SEQ ID:2), which were prepared based on the reported mRNA sequence of GDF-15, and a fluorescent probe having a GDF-15 specific sequence, […] (SEQ ID:3), and acidic ribosomal phosphoprotein PO as an endogenous control, a real time quantitative RT-PCR (Applied Biosystems) was performed.

GDNF = GDNF content of sciatic nerve of KKAy mice fed compound, measured by ELISA; assay type: in vivo, mouse; conditions: 17 week-old female KKAy mice, powder feed containing 0.01% of compound for 7 weeks
Experimental: 17 week-old female KKAy mice (n=10-12) were maintained for 7 weeks on a powder feed (CRF-1, manufactured by Oriental Yeast Co., Ltd.) containing 0.01% of compound (5). Then, sciatic nerve of the mouse was taken and stored at −80° C., until use for the measurement (ca. 10 months).
The stored sciatic nerve was ultrasonicated in a 20-fold volume of a homogenized buffer (0.1 M tris hydrochloride buffer containing 1M sodium chloride, 2% BSA, 2 mM EDTA, 80 trypsin unit/L of aprotinin, 0.02% sodium azide, pH 7.6) and insoluble materials were separated by centrifugation (15,000 rpm, 30 min). The GDNF content of the supernatant was measured by the following ELISA method.
Thus, an anti-hGDNF goat antibody (100 μg/ml) (Genzyme-Techne) was distributed in 10-μl portions in the wells of 96-well round bottom plates and antibody adsorption was allowed to proceed by 2 hours incubation at room temperature. After removing the antibody, each well was washed three times with a washing solution. […] After washing, 30 μl of 4-methylumbelliferyl-β-D-galactoside (produced by Sigma) (10 μg/ml) was added to the substrate, the reaction was allowed to proceed at room temperature for 4 hours and then terminated by addition of 130 μl of 0.1 M glycine-sodium hydroxide buffer (pH 10.3), and the fluorescent intensity of the 4-methylumbelliferone produced was determined (Ex: 360 nm; Em: 450 nm). […]

left sciatic nerve = test: Maximum distance of nerve extension (evoked potential) after sciatic nerve transection in STZ diabetic neuropathy rats; assay type: in vivo, rat; conditions: left sciatic nerve transected, 10 mg/kg body weight/day orally for 5 weeks
Experimental: Streptozotocin (STZ, 70 mg/kg) was intravenously injected to 6-week-old male SD rats (n=9-10) to prepare diabetic neuropathy models. After 2 weeks of the STZ administration, the left sciatic nerve of the rats was transected under anesthesia, and compound (5) was orally administered at the dose of 10 mg/kg body weight/day for 5 weeks. After the completion of the administration, the rats were anesthetized, and the distance (maximum distance of extension) from the nerve transection site to the detectable site was measured for evoked potential using a device detecting evoked potential [Neuropack 2, manufactured by NIHON KOHDEN CORPORATION]. As a result, the maximum extension of the compound (5) administration group was extended by 2.4 times as compared to that of the compound (5) non-administration group (control group).

**Q.** How did the “increase of GDF-15 expression level as compared to non-administration group (control group)” value (GDF-15) turn out when `Cc1ccccc1OCCCc1oc(-n2ccnc2C)nc1-c1ccc(Cl)cc1` [compound (5), 4-(4-chlorophenyl)-2-(2-methyl-1-imidazolyl)-5-[3-(2-methylphenoxy)propyl]oxazole] was run?
**A.** 135%

**Q.** What about the “increase of GDNF content in the sciatic nerve as compared to the control group” value (GDNF) of the same compound?
**A.** 87.9%

**Q.** What about the “maximum extension (distance from nerve transection site to site with detectable evoked potential) relative to control group” value (left sciatic nerve; STZ (70 mg/kg i.v.) male SD rats) of the same compound?
**A.** 2.4 times

**Q.** And the “effect of neuroneogenesis and of restoring nerve function” value (left sciatic nerve; STZ male SD rats)?
**A.** an effect of neuroneogenesis and an effect of restoring nerve function were observed
